Earlier results in article PMC12067266 (Proceedings of the National Academy of Sciences of the …, 2025).

Tested on: KCa3.1
Settings: read-out: KCa3.1 IC50; ref [21]–[23], [49], [50]

Row | IC50 [nM] | SMILES
1 | 9 | O=C1CSc2ccccc2N1Cc1cccc(C(F)(F)F)c1 [NS6180]
2 | 11 | NC(=O)C(c1ccccc1)(c1ccc(F)cc1)c1ccc(F)cc1 [Senicapoc]

Row | SMILES | IC50 [nM]
3 | Clc1ccccc1C(c1ccccc1)(c1ccccc1)n1cccn1 [TRAM-34] | […]
